Results from ChEMBL document CHEMBL5463729, “Data for DCP probe BAY 1753011” (2023).

Experiments:
Settings in all cases: Compound concentration 10.0 uM
[1] = target: Activin receptor type-1B (Homo sapiens) (UniProt P36896); experiment: Inhibition of ALK4(h) at 10.0 µM in the Eurofins Kinase panel
[2] = target: CDC7/Cyclin B1 (Homo sapiens) (UniProt P14635+O00311); experiment: Inhibition of Cdc7/cyclinB1(h) at 10.0 µM in the Eurofins Kinase panel; type: protein-complex assay
[3] = target: Casein kinase 2 (Homo sapiens) (UniProt P67870+P68400+P19784+Q8NEV1); experiment: Inhibition of CK2(h) at 10.0 µM in the Eurofins Kinase panel; type: protein assay
[4] = target: Tyrosine-protein kinase CSK (Homo sapiens) (UniProt P41240); experiment: Inhibition of CSK(h) at 10.0 µM in the Eurofins Kinase panel
Sequence of Tyrosine-protein kinase CSK (Homo sapiens) (P41240 2-450 limits assumed): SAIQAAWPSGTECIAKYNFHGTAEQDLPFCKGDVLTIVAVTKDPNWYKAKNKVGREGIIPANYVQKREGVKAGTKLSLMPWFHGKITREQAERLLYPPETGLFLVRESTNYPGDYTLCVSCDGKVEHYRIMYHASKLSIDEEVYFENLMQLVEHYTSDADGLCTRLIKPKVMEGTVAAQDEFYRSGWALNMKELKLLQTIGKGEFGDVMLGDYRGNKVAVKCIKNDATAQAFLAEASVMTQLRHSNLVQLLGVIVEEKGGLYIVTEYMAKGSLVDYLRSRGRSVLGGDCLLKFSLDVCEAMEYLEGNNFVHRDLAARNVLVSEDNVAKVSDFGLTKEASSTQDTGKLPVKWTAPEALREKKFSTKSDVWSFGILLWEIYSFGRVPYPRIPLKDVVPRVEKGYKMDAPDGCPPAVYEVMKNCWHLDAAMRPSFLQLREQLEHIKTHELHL

[5] = target: Ephrin type-A receptor 7 (Homo sapiens) (UniProt Q15375); experiment: Inhibition of EphA7(h) at 10.0 µM in the Eurofins Kinase panel
Sequence of Ephrin type-A receptor 7 (Homo sapiens) (Q15375 28-998 limits assumed): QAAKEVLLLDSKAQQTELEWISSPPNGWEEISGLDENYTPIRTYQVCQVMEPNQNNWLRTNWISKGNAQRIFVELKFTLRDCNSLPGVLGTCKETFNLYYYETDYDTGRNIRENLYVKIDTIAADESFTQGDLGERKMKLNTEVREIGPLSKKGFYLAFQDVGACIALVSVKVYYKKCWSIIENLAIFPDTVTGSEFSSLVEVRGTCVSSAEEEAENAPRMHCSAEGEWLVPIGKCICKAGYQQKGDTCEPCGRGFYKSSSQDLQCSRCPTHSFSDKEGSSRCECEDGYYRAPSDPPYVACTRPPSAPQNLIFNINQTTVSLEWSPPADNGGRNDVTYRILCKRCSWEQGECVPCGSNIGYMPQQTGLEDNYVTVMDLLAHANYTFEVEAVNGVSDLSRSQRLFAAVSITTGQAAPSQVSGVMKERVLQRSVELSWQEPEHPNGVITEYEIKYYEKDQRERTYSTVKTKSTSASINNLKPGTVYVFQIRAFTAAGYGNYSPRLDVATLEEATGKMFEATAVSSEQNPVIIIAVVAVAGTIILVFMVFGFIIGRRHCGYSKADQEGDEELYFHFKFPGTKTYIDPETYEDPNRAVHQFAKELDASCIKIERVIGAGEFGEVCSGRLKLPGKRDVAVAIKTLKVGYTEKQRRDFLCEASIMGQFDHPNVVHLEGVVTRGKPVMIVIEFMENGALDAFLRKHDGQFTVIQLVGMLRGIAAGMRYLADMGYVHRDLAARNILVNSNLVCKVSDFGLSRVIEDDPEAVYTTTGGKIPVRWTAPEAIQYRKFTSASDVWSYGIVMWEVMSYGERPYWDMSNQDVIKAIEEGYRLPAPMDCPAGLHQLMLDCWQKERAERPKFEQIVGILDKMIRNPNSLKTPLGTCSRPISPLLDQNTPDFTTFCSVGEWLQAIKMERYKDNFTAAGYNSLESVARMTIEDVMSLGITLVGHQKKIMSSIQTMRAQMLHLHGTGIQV

[6] = target: Homeodomain-interacting protein kinase 4 (Homo sapiens) (UniProt Q8NE63); experiment: Inhibition of HIPK4(h) at 10.0 µM in the Eurofins Kinase panel
[7] = target: Serine/threonine-protein kinase PAK 1 (Homo sapiens) (UniProt Q13153); experiment: Inhibition of PAK1(h) at 10.0 µM in the Eurofins Kinase panel
[8] = target: Serine/threonine-protein kinase D1 (Homo sapiens) (UniProt Q15139); experiment: Inhibition of PKCmu(h) at 10.0 µM in the Eurofins Kinase panel
[9] = target: MAP kinase-activated protein kinase 5 (Homo sapiens) (UniProt Q8IW41); experiment: Inhibition of PRAK(h) at 10.0 µM in the Eurofins Kinase panel
[10] = target: Proto-oncogene tyrosine-protein kinase ROS (Homo sapiens) (UniProt P08922); experiment: Inhibition of Ros(h) at 10.0 µM in the Eurofins Kinase panel
Sequence of Proto-oncogene tyrosine-protein kinase ROS (Homo sapiens) (P08922 whole entry): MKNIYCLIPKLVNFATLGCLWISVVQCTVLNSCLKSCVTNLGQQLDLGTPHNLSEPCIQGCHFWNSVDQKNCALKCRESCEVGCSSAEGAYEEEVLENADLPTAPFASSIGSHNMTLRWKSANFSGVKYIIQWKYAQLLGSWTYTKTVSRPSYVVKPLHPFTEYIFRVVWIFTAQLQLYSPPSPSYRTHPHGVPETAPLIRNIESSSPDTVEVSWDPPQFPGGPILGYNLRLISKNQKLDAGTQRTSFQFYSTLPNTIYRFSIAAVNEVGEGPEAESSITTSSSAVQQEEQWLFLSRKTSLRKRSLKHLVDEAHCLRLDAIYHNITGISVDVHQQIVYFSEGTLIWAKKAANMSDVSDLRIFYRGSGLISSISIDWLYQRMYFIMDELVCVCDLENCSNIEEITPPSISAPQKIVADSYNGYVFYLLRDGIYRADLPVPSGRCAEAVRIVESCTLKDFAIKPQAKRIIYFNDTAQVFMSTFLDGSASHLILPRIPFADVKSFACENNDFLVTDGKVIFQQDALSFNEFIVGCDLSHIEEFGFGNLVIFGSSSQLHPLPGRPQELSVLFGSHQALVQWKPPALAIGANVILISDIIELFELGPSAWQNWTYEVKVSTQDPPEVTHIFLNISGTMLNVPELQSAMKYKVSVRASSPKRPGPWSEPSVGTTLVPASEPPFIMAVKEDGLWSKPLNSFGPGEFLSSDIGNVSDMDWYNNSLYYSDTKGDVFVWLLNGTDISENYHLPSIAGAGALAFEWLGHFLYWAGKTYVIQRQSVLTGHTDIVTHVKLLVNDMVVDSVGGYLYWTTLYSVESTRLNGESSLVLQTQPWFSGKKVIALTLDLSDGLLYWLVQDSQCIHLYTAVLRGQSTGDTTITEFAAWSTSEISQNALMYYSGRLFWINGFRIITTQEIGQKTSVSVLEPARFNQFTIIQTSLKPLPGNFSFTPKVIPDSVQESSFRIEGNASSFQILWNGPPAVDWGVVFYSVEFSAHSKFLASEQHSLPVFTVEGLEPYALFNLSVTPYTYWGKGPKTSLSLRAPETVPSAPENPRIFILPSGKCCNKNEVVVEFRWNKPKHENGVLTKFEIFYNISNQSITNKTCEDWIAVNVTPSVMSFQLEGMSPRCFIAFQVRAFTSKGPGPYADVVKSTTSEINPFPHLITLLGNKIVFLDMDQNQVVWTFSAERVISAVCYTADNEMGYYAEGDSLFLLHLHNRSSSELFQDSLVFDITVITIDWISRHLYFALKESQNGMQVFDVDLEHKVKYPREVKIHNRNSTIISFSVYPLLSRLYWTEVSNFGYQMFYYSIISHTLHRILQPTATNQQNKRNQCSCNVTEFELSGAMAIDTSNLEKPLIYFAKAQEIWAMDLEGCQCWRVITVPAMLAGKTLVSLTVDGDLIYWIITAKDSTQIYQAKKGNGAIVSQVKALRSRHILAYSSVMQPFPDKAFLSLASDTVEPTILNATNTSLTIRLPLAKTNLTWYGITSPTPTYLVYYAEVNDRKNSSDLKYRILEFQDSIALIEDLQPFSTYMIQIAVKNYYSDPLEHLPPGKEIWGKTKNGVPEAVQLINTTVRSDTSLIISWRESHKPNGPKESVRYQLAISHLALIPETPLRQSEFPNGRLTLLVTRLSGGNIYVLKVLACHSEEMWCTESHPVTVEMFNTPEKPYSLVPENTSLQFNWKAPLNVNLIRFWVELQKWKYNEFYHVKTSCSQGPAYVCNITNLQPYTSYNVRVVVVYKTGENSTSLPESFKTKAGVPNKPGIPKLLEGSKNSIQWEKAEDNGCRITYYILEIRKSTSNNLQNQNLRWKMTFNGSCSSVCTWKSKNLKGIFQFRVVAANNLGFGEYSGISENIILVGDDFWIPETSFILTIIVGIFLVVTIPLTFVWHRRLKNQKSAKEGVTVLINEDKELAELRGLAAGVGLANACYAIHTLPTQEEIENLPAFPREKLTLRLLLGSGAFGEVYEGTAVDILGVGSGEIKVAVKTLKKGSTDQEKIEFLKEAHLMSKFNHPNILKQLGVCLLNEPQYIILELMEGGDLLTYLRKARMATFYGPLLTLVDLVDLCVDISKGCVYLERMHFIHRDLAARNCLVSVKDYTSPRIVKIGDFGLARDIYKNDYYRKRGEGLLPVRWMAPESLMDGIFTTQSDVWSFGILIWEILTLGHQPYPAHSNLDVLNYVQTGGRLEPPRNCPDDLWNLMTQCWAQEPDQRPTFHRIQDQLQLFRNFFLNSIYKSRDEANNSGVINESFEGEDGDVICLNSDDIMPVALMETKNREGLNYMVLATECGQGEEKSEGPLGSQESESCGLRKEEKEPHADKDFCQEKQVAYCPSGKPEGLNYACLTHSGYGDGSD

[11] = target: Serine/threonine-protein kinase PLK2 (Homo sapiens) (UniProt Q9NYY3); experiment: Inhibition of Snk(h) at 10.0 µM in the Eurofins Kinase panel
ATR/ATRIP (Homo sapiens) = ATR/ATRIP (Homo sapiens) (UniProt Q13535+Q8WXE1); experiment: Inhibition of ATR/ATRIP(h) at 10.0 µM in the Eurofins Kinase panel; type: protein-complex assay
[12] = target: Transient receptor potential cation channel subfamily M member 7 (Homo sapiens) (UniProt Q96QT4); experiment: Inhibition of ChaK1(h) at 10.0 µM in the Eurofins Kinase panel
[13] = target: Histamine H2 receptor (Homo sapiens) (UniProt P25021)
Sequence of Histamine H2 receptor (Homo sapiens) (P25021 whole entry): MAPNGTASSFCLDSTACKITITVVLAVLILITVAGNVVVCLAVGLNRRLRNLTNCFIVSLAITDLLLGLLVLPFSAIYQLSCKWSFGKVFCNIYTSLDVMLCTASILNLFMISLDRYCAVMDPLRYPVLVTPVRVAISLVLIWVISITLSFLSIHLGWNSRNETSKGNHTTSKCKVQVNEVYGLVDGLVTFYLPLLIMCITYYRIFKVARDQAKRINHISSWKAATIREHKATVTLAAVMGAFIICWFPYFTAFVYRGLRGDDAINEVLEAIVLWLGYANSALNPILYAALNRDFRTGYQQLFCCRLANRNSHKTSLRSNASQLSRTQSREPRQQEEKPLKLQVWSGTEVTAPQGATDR

[14] = target: T1, Alpha-2A adrenergic receptor (Homo sapiens) (UniProt P08913)
T1 sequence (whole entry): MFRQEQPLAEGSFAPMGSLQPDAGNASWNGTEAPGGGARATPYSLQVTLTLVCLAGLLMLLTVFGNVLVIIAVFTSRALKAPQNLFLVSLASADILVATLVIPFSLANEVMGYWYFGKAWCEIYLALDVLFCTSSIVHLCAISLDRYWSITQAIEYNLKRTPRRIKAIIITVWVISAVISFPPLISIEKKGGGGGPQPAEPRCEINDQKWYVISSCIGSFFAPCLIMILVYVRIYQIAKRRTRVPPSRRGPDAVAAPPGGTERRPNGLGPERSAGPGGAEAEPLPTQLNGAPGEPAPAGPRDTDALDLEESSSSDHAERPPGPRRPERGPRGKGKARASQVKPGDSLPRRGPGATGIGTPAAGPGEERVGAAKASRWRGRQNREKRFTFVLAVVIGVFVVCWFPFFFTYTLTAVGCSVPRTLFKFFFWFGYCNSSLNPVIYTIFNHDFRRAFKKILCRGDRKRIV

[15] = target: D(3) dopamine receptor (Homo sapiens) (UniProt P35462)
Sequence of D(3) dopamine receptor (Homo sapiens) (P35462 whole entry): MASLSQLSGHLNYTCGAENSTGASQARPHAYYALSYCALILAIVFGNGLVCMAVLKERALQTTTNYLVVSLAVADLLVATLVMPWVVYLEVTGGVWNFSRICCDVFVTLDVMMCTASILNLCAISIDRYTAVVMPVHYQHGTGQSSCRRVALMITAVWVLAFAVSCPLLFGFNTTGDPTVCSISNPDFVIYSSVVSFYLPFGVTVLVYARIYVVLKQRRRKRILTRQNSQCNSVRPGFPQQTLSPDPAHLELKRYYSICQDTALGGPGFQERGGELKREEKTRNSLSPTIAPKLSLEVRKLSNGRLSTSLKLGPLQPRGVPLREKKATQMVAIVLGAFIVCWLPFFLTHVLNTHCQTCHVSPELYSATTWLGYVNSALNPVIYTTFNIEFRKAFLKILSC

[16] = target: Sodium-dependent serotonin transporter (Homo sapiens) (UniProt P31645)
[17] = target: Beta-3 adrenergic receptor (Homo sapiens) (UniProt P13945)
[18] = target: T2, Alpha-2C adrenergic receptor (Homo sapiens) (UniProt P18825)
T2 sequence (whole entry): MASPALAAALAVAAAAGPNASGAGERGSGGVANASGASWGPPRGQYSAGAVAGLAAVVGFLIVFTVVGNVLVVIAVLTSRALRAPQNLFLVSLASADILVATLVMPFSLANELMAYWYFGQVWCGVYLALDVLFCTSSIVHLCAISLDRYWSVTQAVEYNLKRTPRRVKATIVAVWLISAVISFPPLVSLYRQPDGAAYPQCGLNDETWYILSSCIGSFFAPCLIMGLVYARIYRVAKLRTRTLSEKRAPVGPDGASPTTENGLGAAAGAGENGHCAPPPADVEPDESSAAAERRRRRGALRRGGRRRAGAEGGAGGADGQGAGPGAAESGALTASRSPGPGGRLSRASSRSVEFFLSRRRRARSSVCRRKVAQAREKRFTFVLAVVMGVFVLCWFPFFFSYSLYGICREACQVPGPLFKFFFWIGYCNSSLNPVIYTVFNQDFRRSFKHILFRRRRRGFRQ

[19] = target: Type-1 angiotensin II receptor (Homo sapiens) (UniProt P30556)
[20] = target: Equilibrative nucleoside transporter 1/2/3/4 (Homo sapiens) (UniProt Q99808+Q7RTT9+Q14542+Q9BZD2)
Rattus norvegicus = species: Rattus norvegicus; experiment: Inhibition of Imidazoline I2, Central at 10 µM in the Eurofins-Panlabs radioligand binding assay (Eurofins_assay_241000); design: ligand concentration 2 nM
Homo sapiens = species: Homo sapiens; experiment: Inhibition of Nicotinic Acetylcholine at compound concentration of 10.0 uM in the Eurofins-Panlabs radioligand binding assay (Eurofins_assay_258590); type: protein-complex assay
[21] = target: Substance-K receptor (Homo sapiens) (UniProt P21452); experiment: Inhibition of Tachykinin NK2 at 10 µM in the Eurofins-Panlabs radioligand binding assay (Eurofins_assay_255600); design: ligand concentration 0.5 nM
[22] = target: Serine/threonine-protein kinase Chk2 (Homo sapiens) (UniProt O96017); experiment: Inhibition of CHK2(h) at 10.0 µM in the Eurofins Kinase panel
[23] = target: Vascular endothelial growth factor receptor 1 (Homo sapiens) (UniProt P17948); experiment: Inhibition of Flt1(h) at 10.0 µM in the Eurofins Kinase panel
[24] = target: Tyrosine-protein kinase SYK (Homo sapiens) (UniProt P43405); experiment: Inhibition of Syk(h) at 10.0 µM in the Eurofins Kinase panel
[25] = target: Mitogen-activated protein kinase kinase kinase kinase 2 (Homo sapiens) (UniProt Q12851); experiment: Inhibition of GCK (h) at 10.0 µM in the Eurofins Kinase panel

Sequence of Activin receptor type-1B (Homo sapiens) (P36896 whole entry): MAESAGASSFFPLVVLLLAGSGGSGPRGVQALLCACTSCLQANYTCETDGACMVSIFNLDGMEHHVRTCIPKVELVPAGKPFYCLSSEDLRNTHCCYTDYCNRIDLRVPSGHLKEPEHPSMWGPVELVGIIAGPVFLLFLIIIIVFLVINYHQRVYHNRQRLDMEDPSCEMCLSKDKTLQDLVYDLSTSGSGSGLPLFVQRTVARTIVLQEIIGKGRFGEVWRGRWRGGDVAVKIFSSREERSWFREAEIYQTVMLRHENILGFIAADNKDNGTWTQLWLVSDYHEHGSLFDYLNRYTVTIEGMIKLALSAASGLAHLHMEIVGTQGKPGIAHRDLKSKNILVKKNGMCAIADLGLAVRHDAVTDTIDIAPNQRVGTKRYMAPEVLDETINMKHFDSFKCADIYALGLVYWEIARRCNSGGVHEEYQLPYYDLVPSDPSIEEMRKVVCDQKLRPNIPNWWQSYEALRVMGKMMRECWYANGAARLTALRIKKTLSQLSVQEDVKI

SMILES | inhibition [1] | inhibition [2] | inhibition [3] | inhibition [4] | inhibition [5] | inhibition [6] | inhibition [7] | inhibition [8] | inhibition [9] | inhibition [10] | inhibition [11] | inhibition (ATR/ATRIP (Homo sapiens)) | inhibition [14] | inhibition [15] | inhibition [16] | inhibition [17] | inhibition [18] | further results
O=c1n(Cc2cncn2-c2cccc(Cl)c2)nc(-c2ccc(Cl)cc2)n1C[C@H](O)C(F)(F)F | 3.01% | 3.68% | -3.37% | -8.53% | 3.37% | 4.55% | 5.16% | 5.31% | 9.81% | 3.23% | 0.93% | 10.2% | -3.35% | -8% | 1% | 6% | -3% | inhibition [12]: -0.03%; inhibition [13]: 20%; inhibition [19]: -6%; inhibition [20]: 10%
C[C@H](O)c1nc(Cn2nc(-c3ccc(Cl)cc3)n(C[C@H](O)C(F)(F)F)c2=O)nn1-c1cccc(Cl)c1 [PECAVAPTAN] | 4.03% | 9.78% | 5.37% | -8.59% | 4.11% | -3.59% | 5.15% | -6.51% | 11.4% | -1.01% | -4.51% | -5.29% | 8.06% | 26% | 6% | -10% | 11% | inhibition (Rattus norvegicus): 21%; inhibition (Homo sapiens): -6%; inhibition [21]: 30%; inhibition [22]: -8.52%; inhibition [23]: -9.22%; inhibition [24]: -8.56%; inhibition [25]: -4.72%
